“Also recorded” adds a separate entry of the source. Where two headings read alike, the source gives them in different places.
Experiments:
[1] = in vivo; cited from earlier work
ΔF508-CFTR [2] = conditions: cited from earlier work
ΔF508-CFTR [3] = molecular target: T1, ΔF508-CFTR (Homo sapiens, UniProt P13569, DEL508-508); conditions: IB3-1 cells; 2.5 mM; cited from earlier work
T1 construct: primary cultures of nasal polyp epithelia from CF patients (ΔF508 homozygous or heterozygous), or the CF bronchial epithelial cell line IB3-1; endogenous in cells; host or cells: primary nasal polyp epithelia from CF patients; IB3-1 CF bronchial epithelial cell line
T1 sequence (P13569 with tags, fused parts or gaps DEL508-508): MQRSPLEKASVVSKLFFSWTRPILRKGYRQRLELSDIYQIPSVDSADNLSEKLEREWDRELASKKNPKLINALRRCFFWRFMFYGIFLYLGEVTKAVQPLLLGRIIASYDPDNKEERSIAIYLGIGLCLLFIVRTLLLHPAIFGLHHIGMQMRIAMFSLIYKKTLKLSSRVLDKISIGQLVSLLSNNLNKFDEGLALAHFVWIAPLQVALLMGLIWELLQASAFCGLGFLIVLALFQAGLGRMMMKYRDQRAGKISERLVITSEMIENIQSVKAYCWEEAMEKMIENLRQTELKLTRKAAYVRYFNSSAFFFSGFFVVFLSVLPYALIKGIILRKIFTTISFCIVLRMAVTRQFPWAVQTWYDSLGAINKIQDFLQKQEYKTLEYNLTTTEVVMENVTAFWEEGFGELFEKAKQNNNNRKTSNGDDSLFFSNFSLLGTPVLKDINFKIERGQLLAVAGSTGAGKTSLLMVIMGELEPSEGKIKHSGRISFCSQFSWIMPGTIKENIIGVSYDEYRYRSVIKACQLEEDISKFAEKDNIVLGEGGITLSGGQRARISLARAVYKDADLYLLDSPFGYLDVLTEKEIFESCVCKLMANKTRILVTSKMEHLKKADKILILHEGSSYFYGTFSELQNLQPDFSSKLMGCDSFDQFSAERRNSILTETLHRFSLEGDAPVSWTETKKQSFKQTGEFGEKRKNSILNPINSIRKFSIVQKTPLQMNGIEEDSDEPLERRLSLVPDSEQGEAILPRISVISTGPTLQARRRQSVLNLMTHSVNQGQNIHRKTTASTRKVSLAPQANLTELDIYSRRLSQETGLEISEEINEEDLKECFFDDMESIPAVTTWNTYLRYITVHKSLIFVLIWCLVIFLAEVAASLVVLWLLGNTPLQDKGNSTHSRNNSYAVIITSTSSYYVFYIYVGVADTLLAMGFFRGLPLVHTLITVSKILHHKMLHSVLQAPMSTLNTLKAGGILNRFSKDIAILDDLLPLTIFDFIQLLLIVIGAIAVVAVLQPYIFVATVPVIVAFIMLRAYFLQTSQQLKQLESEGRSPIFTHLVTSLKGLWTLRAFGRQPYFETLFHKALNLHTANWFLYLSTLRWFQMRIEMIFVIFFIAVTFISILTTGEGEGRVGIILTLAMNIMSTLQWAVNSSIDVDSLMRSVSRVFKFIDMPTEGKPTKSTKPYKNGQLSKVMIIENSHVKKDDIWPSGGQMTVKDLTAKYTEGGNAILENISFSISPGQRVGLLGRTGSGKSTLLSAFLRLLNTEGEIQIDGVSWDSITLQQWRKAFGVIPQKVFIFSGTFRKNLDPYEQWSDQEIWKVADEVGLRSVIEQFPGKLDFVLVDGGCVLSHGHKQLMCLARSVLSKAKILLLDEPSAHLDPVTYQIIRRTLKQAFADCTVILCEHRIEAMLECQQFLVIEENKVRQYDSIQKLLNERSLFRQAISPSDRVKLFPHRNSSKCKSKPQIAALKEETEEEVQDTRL

CFTR gene = conditions: cited from earlier work
ΔF508-CFTR [4] = molecular target: T1, ΔF508-CFTR; conditions: 0.1 and 2 mM; primary nasal polyp epithelia or IB3-1 cells; up to 7 days in culture; cited from earlier work
ΔF508-CFTR [5] = conditions: CF epithelial cells; cited from earlier work
ΔF508-CFTR [6] = conditions: up to 300 mM; cited from earlier work
[7] = tested on: ΔF508-homozygous pancreatic acinar cell line; conditions: cited from earlier work
IB3-1 cells = conditions: respiratory epithelial cells; 1-2 mM; cited from earlier work
ΔF508-CFTR [8] = molecular target: T1, ΔF508-CFTR; conditions: 1 M or 10%; cited from earlier work
fetal hemoglobin = fetal hemoglobin levels in thalassemic patients; assay type: in vivo
Excerpt: Compositions administered in pulses have the surprising benefit of reducing the overall load of drug on the patient as the total amount of drug administered can be substantially less than that amount that has been therapeutically administered by conventional continuous therapy. Substantially means that there is more than an insignificant difference between the amount or concentration of a composition administered by pulsing according to the invention verses the amount or concentration administered using conventional therapy, without compromising the beneficial effect achieved to the patient. […] Typical pulsed amounts of arginine butyrate are from about 2 to about 20 g/kg/month, and preferably from about 3 to about 10 g/kg/month wherein the patient receives a total of less than about 20 kg per month, preferably less than about 15 kg per month and more preferably less than about 10 kg per month. […] Preferably, the therapeutically effective pulsed dose is less than the continuous dose, or less than one half, one third, one quarter, one fifth, one tenth or even one twentieth of the therapeutic continuous dose of the same composition or even less.

[9] = in vivo; cited from earlier work; remark: listed apart in the source

O=C(O)CCCc1ccccc1 [4PBA, 4-phenylbutyrate]
clinical tolerability [1]: not well tolerated | CFTR immunoreactivity in immunoblot experiments (ΔF508-CFTR [2]; 4PBA-treated samples): increased CFTR immunoreactivity | higher molecular mass forms of CFTR (immunoblot) (ΔF508-CFTR [2]; IB3-1 cells, 0.1-1 mM): appearance of higher molecular mass forms of CFTR | higher molecular mass forms of CFTR (immunoblot) (ΔF508-CFTR [2]; primary nasal epithelia, 5 mM): appearance of higher molecular mass forms of CFTR | protein kinase A-activated, linear, 10 pS chloride channels at the plasma membrane (ΔF508-CFTR [3]): appeared at the plasma membrane | CFTR RNA levels (CFTR gene): no changes in CFTF RNA levels; also recorded: no increases in CFTR mRNA | forskolin-activated chloride secretion (ΔF508-CFTR [4]): restoration of forskolin-activated chloride secretion | amount of ΔF508-CFTR by immunocytochemistry (ΔF508-CFTR [5]): consistent with increasing amounts of ΔF508-CFTR; also recorded: Increased CFTR immunoreactivity

CCCC(=O)O [butyrate, butyric acid]
cAMP-stimulation indicative of chloride ion transport (ΔF508-CFTR [6]): no increases in cAMP-stimulation was observed | cAMP-responsive chloride secretion [7]: can induce cAMP-responsive chloride secretion | cell health, growth rate and morphology (IB3-1 cells): morphologic changes in IB3-1 cells, with rounding of cells and decreased growth rate

OCC(O)CO [glycerol]
movement of ΔF508-CFTR from the ER to the plasma membrane (ΔF508-CFTR [8]): facilitate movement of ΔF508-CFTR from the ER to the plasma membrane

arginine butyrate
effectiveness at continuous administration (fetal hemoglobin; about 2000 mg/kg patient weight, continuous): effective | benefit measured by rise in fetal hemoglobin levels (fetal hemoglobin; about 400 to 1500 mg/kg in pulses, thalassemic patients): surprisingly more beneficial | half-life [9]: 15 min
